Here are results for 1 molecule from publication PMC10938439, “C-3 Steroidal Hemiesters as Inhibitors of 17β-Hydroxysteroid Dehydrogenase Type 10” (ACS Omega, 2024).

The structures appear in SMILES notation. Several values for one entry are separate records, joined by “and”; a condition that tells them apart may be missing. Equal entries are not always repeated.

Details of series [1]: method as in PMID 30296546. The note with it: cited from earlier work.
For series [2], the target named is T1, 17β-HSD10 (Homo sapiens, UniProt Q99714).
T1 construct: inferred from Ni-NTA purification with imidazole elution; made in house; host or cells: E. coli BL21 (DE3)
T1 sequence (Q99714 1-261): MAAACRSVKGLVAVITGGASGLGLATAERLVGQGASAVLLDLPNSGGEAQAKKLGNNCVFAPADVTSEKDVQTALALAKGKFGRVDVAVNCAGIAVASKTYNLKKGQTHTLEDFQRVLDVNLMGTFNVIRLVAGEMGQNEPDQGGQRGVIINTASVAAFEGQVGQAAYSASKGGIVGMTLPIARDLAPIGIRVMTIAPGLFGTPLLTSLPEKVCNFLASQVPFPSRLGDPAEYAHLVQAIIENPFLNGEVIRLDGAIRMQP
The series can be described thus: Inhibition type determination with respect to substrate 17β-estradiol (Hanes–Woolf plot). The note with it: compound at 3, 6 and 9 μM, 17β-estradiol 12.5–75 μM, NAD+ 500 μM. In kind it is biochemical. The method, then:
The uninhibited enzymatic reaction (0 μM 23) was compared with the enzymatic reaction at three concentrations of compound 23 (3, 6, and 9 μM) using 17β-estradiol as the substrate. […] Such inhibitor binds the enzyme preventing the formation of the enzyme–substrate complex. […] This hypothesis was confirmed by the kinetic experiment. The obtained data were linearized by using Hanes–Woolf plot (Figure 2).
The type of inhibition of compound 23 was determined with respect to the substrate 17β-estradiol. The inhibitor was determined at three different concentrations (3, 6, and 9 μM) in combination with different concentrations of 17β-estradiol (12.5–75 μM) and a saturated NAD^+ concentration (500 μM). As vehicle control, DMSO was used. The obtained data were analyzed using GraphPad Prism 8.4.3 (GraphPad Software Inc.). All measurements were performed in triplicate.

The target in series [3] is T1, 17β-HSD10. Nature of the series: Inhibition of 17β-estradiol to estrone transformation by purified recombinant 17β-HSD10 (NADH fluorescence). The note with it: purified recombinant 17β-HSD10, 17β-estradiol as substrate; means ± SEM (n = 4). The class given is biochemical. The method, then:
As standards, we used the known inhibitor AG18051 as the positive control and the published steroidal compounds,[18] namely, pregnenolone, testosterone, dihydrotestosterone, androsterone, epiandrosterone, and dehydroepiandrosterone.
17β-HSD10 was performed as described previously.[11] Briefly, the autoinduction and overexpression were performed at 25 °C for 18 h in the E. coli BL21 (DE3) strain. The bacterial pellet was resuspended in lysis buffer that consisted of sodium phosphate buffer ([…]), NaCl (150 mM), and imidazole (10 mM, pH 8.0) with 1 mg/mL lysozyme and benzonase (150 U/mL). cOmplete EDTA-free protease inhibitor cocktail was incubated for 20 min on ice and then sonicated (12 × 10 s pulses with 30 s pauses). The supernatant was applied to the Ni-NTA agarose resin after centrifugation (16 000g, 10 min, 4 °C). Then, the solution was incubated on ice for 1 h with gentle stirring.
The standard steroids were screened at 1 and 10 μM concentrations, and the tested compounds and standard AG18051 were screened at 10 μM concentration. For compounds with at least 50% inhibition of 17β-HSD10, the IC50 values were determined.
Steroid stock solutions (5 mM) were further diluted with DMSO to the working concentrations. DMSO was used as a vehicle control, and AG18051 was used as a control inhibitor. The enzyme activity was determined fluorometrically at 37 °C in the activity assay buffer [100 mM potassium phosphate buffer (pH 8.0)]. The general reaction mixture (200 μL per well) consisted of 17β-estradiol (25 μM, DMSO), NAD+ (500 μM, deionized water), recombinant 17β-HSD10 (45 nM), and different concentrations of inhibitor (2.2% (v/v) final concentration of DMSO as solvent). Before the addition of substrate, the reaction mixture of enzyme, cofactor, and inhibitor in the assay buffer was preincubated for 5 min at 37 °C. The increase of fluorescence (Ex/Em = 340/460 nm) due to the formation of NADH was monitored for 20 min (30 s intervals). For IC50 value determination, dose–response inhibition at 11 different concentrations of inhibitor (0.6–33.75 μM) was determined and the data were analyzed by GraphPad Prism 8.4.3 (GraphPad Software Inc.). All measurements were performed in a tetraplicate.

Series [4] concerns the target T1, 17β-HSD10. The series can be described thus: Inhibition of allopregnanolone to 5α-dihydroprogesterone transformation by recombinant 17β-HSD10. The class given is biochemical. The note with it: 20 μM allopregnanolone as substrate; mean ± SEM (n = 4). The method, then: Compound 23 (5 mM stock solution) was diluted with DMSO to the working concentrations. DMSO was used as vehicle control. The enzyme activity was determined as described in the previous section; the only difference was the replacement of 25 μM 17β-estradiol with 20 μM allopregnanolone as 17β-HSD10 substrate. For IC50 value determination, dose–response inhibition at 10 different concentrations of inhibitor (0.16–33.75 μM) was determined, and the data were analyzed by GraphPad Prism 8.4.3 (GraphPad Software Inc.). All measurements were performed in a tetraplicate.

As a reminder, the IC50 is the concentration that inhibits the measured activity by half. With `C[C@@]12CCC[C@H]1[C@@H]1CC=C3C[C@@H](OC(=O)CCCCC(=O)O)CC[C@]3(C)[C@H]1CC2` [Compound 23, Androst-5-en-3β-yl Hemiadipate], the “rat plasma stability, % remaining after 8 h” value in series [1] is reported as 32%. In addition, the type of inhibition result on 17β-HSD10 [2] was “competitive”. The IC50 was ~5.59 µM and 5.59 µM on 17β-HSD10 [3]; ~15.2 µM and 15.2 µM at 17β-HSD10 [4].
